Data from patent US20230129721A1, “STABILIZER FOR RADIOPHARMACEUTICALS AND RADIOPHARMACEUTICAL COMPOSITION COMPRISING THE SAME” (THE ASAN FOUNDATION, priority 2020, published 2023).

Assay: Stability (labeling / radiochemical purity by HPLC) of ^99mTc-labeled radiopharmaceutical-containing preparation under acidic, neutral and basic conditions
Assay type: physicochemical
Description: 2 mL of Tc-99m was added dropwise to a lyophilization vial containing 0.1 mg of GP-104, 15 μg of SnCl2, and 20 μg (165 nmol) of cysteine, and left at room temperature for 10 minutes, and the reaction was terminated by adjusting the pH of the mixture to pH 7 using a NaOH solution. The labeling purity was determined using HPLC (analysis conditions: Luna C18 250×4.6 mm, phosphate buffer:acetonitrile (100:0, 0-5 minutes; 80:20, 5-10 minutes; 80:20, 17 minutes; 100:0, 17.1 minutes; 100:0. 20 minutes), 1.0 mL/min, UV=280 nm).
HCl and NaOH were further added dropwise to the solution of Example 7 to adjust the final pH of the solution, followed by stability evaluation under the acidic (pH 5.5) and basic (pH 8.5) conditions. Then, the labeling purity was determined in the same manner as in Example 7 using HPLC.
(§1) 2 mL of Tc-99m was added dropwise to a lyophilization vial containing 0.1 mg of radiopharmaceutical GP-104, 15 μg of SnCl2, 10 μg (82.5 nmol) of cysteine, and 22 μg (82.5 nmol) of VB1, and left at room temperature for 10 minutes, and the reaction was terminated by adjusting the pH of the mixture to pH 7 using a NaOH solution. Then, the labeling purity was determined in the same manner as in Example 7 using HPLC.
HCl and NaOH were further added dropwise to the solution of Example 9 to adjust the final pH of the solution, followed by stability evaluation under the acidic (pH 5.5) and basic (pH 8.5) conditions. Then, the labeling purity was determined in the same manner as in Example 7 using HPLC.
as §1, with “of” for “of radiopharmaceutical”, “17” for “22”, “VB6,” for “VB1,”
HCl and NaOH were further added dropwise to the solution of Example 11 to adjust the final pH of the solution, followed by stability evaluation under the acidic (pH 5.5) and basic (pH 8.5) conditions. Then, the labeling purity was determined in the same manner as in Example 7 using HPLC.
as §1, with “of GP-105,” for “of radiopharmaceutical GP-104,”, “SnCl2, and 20” for “SnCl2, 10”, “μg (165” for “μg (82.5”, “cysteine,” for “cysteine, and 22 μg (82.5 nmol) of VB1,”
HCl and NaOH were further added dropwise to the solution of Example 13 to adjust the final pH of the solution, followed by stability evaluation under the acidic (pH 5.5) and basic (pH 8.5) conditions. Then, the labeling purity was determined in the same manner as in Example 7 using HPLC.
as §1, with “GP-105,” for “radiopharmaceutical GP-104,”
HCl and NaOH were further added dropwise to the solution of Example 15 to adjust the final pH of the solution, followed by stability evaluation under the acidic (pH 5.5) and basic (pH 8.5) conditions. Then, the labeling purity was determined in the same manner as in Example 7 using HPLC.
as §1, with “GP-105,” for “radiopharmaceutical GP-104,”, “17” for “22”, “VB6,” for “VB1,”, “HPLC. […]” for “HPLC.”

[1] = 10 μg (82.5 nmol) cysteine and 17 μg (82.5 nmol) VB6, pH 5.5, 0 hr
[2] = 10 μg (82.5 nmol) cysteine and 17 μg (82.5 nmol) VB6, pH 5.5, 2 hr
[3] = 10 μg (82.5 nmol) cysteine and 17 μg (82.5 nmol) VB6, pH 5.5, 4 hr
[4] = 10 μg (82.5 nmol) cysteine and 17 μg (82.5 nmol) VB6, pH 7, 0 hr
[5] = 10 μg (82.5 nmol) cysteine and 17 μg (82.5 nmol) VB6, pH 7, 2 hr
[6] = 10 μg (82.5 nmol) cysteine and 17 μg (82.5 nmol) VB6, pH 7, 4 hr
[7] = 10 μg (82.5 nmol) cysteine and 17 μg (82.5 nmol) VB6, pH 8.5, 0 hr
[8] = 10 μg (82.5 nmol) cysteine and 17 μg (82.5 nmol) VB6, pH 8.5, 2 hr
[9] = 10 μg (82.5 nmol) cysteine and 17 μg (82.5 nmol) VB6, pH 8.5, 4 hr
[10] = 10 μg (82.5 nmol) cysteine and 22 μg (82.5 nmol) VB1, pH 5.5, 0 hr
[11] = 10 μg (82.5 nmol) cysteine and 22 μg (82.5 nmol) VB1, pH 5.5, 2 hr
[12] = 10 μg (82.5 nmol) cysteine and 22 μg (82.5 nmol) VB1, pH 5.5, 4 hr
[13] = 10 μg (82.5 nmol) cysteine and 22 μg (82.5 nmol) VB1, pH 7, 0 hr
[14] = 10 μg (82.5 nmol) cysteine and 22 μg (82.5 nmol) VB1, pH 7, 2 hr
[15] = 10 μg (82.5 nmol) cysteine and 22 μg (82.5 nmol) VB1, pH 7, 4 hr
[16] = 10 μg (82.5 nmol) cysteine and 22 μg (82.5 nmol) VB1, pH 8.5, 0 hr
[17] = 10 μg (82.5 nmol) cysteine and 22 μg (82.5 nmol) VB1, pH 8.5, 2 hr
[18] = 10 μg (82.5 nmol) cysteine and 22 μg (82.5 nmol) VB1, pH 8.5, 4 hr
[19] = 20 μg (165 nmol) cysteine, pH 5.5, 0 hr
[20] = 20 μg (165 nmol) cysteine, pH 5.5, 2 hr
[21] = 20 μg (165 nmol) cysteine, pH 5.5, 4 hr
[22] = 20 μg (165 nmol) cysteine, pH 7, 0 hr
[23] = 20 μg (165 nmol) cysteine, pH 7, 2 hr
[24] = 20 μg (165 nmol) cysteine, pH 7, 4 hr
[25] = 20 μg (165 nmol) cysteine, pH 8.5, 0 hr
[26] = 20 μg (165 nmol) cysteine, pH 8.5, 2 hr
[27] = 20 μg (165 nmol) cysteine, pH 8.5, 4 hr

Compound | radiochemical purity (labeling purity) [1] | radiochemical purity (labeling purity) [2] | radiochemical purity (labeling purity) [3] | radiochemical purity (labeling purity) [4] | radiochemical purity (labeling purity) [5] | radiochemical purity (labeling purity) [6] | radiochemical purity (labeling purity) [7] | radiochemical purity (labeling purity) [8] | radiochemical purity (labeling purity) [9] | radiochemical purity (labeling purity) [10] | radiochemical purity (labeling purity) [11] | radiochemical purity (labeling purity) [12] | radiochemical purity (labeling purity) [13] | radiochemical purity (labeling purity) [14] | radiochemical purity (labeling purity) [15] | radiochemical purity (labeling purity) [16] | radiochemical purity (labeling purity) [17] | radiochemical purity (labeling purity) [18] | radiochemical purity (labeling purity) [19] | radiochemical purity (labeling purity) [20] | other results
O=C(O)C[C@H](NC(=O)[C@@H]1CCCN(C(=O)CCC2CCNCC2)C1)c1cncc(OCCNC(=O)CN(CC(=O)O)CC(=O)O)c1 (99mTc complex, metal not drawn) [GP-105, 2,2′-((2-((2-((5-((S)-2-carboxy-1-((R)-1-(3-(piperidin-4-yl)propanoyl)piperidine-3-carboxamido)ethyl)pyridin-3-yl)oxy)ethyl)amino)-2-oxoethyl)azanediyl)diacetic acid] | 100% | 97.24% | 95.61% | 100% | 98.56% | 98.2% | 100% | 92.21% | 89.62% | 100% | 100% | 98.63% | 100% | 100% | 94.88% | 100% | 94.13% | 90.17% | 100% | 85.49% | radiochemical purity (labeling purity) [21]: 82.11%; radiochemical purity (labeling purity) [22]: 100%; radiochemical purity (labeling purity) [23]: 94.88%; radiochemical purity (labeling purity) [24]: 85.55%; radiochemical purity (labeling purity) [25]: 100%; radiochemical purity (labeling purity) [26]: 50.64%; radiochemical purity (labeling purity) [27]: 23.98%
O=C(O)C[C@H](NC(=O)[C@@H]1CCCN(C(=O)CCC2CCNCC2)C1)c1cncc(OCCNC(=O)CN(CCN(CCN(CC(=O)O)CC(=O)O)CC(=O)O)CC(=O)O)c1 [GP-104, (S)-3-(5-(2-(2-DTPA acetamido)ethoxy)pyridin-3-yl)-3-((R)-1-(3-(piperidin-4-yl)propanoyl)piperidine-3-carboxamido)propanoic acid] | 97.24% | 90.29% | 90.65% | 97.24% | 95.61% | 96.25% | 97.24% | 95.61% | 91.19% | 100% | 92.72% | 91.20% | 100% | 98.63% | 98.18% | 100% | 83.08% | 80.97% | 95.26% | 91.45% | radiochemical purity (labeling purity) [21]: 89.28%; radiochemical purity (labeling purity) [22]: 95.26%; radiochemical purity (labeling purity) [23]: 91.19%; radiochemical purity (labeling purity) [24]: 91.61%; radiochemical purity (labeling purity) [25]: 95.26%; radiochemical purity (labeling purity) [26]: 79.83%; radiochemical purity (labeling purity) [27]: 51.77%
